# Results taken from patent US8487096B2, “Imidazo[1,2-B][1,2,4]triazines as C-MET inhibitors” (Incyte Corporation, priority 2010, dated 2013).
# Biological target: c-Met kinase (histidine-tagged c-Met catalytic domain fusion protein) (Homo sapiens (Human), UniProt P08581)
# Assay: In Vitro c-Met Kinase Enzyme Assays
# Format: biochemical
# Conditions: inhibition of c-Met kinase; phosphorylation of poly Glu-Tyr, 5 μM ATP, 25 minutes at 30° C.
# Procedure: The compounds of the invention were screened in vitro for their ability to inhibit c-Met kinase activity. The IC50 values for the inhibition of c-Met kinase were determined as described in the literature with some modifications (Wang, X. et al, Mol. Cancer. Ther. 2003, 2(11):1085-1092; Calic, M. et al., Croatica Chemical ACTA. 2005, 78(3):367-374). Briefly, histidine-tagged c-Met catalytic domain fusion protein (Invitrogen, # PV3143) was used for the assay. IC50 measurements were based on the degree of phosphorylation of poly Glu-Tyr (Sigma-Aldrich, # PO275) that was coated (0.01 mg/per well) on 96-well microplates (R&D systems, # DY990). The reaction was carried out in a 50 μL solution containing 50 mM HEPES (pH 7.5), 10 mM MnCl2, 10 mM MgCl2, 0.5 mM DTT, 100 μM Na3VO4, 5 μM ATP (Cell Signaling Technology, #9804) and serial dilutions of the test compound. The reaction lasted for 25 minutes at 30° C. After the reaction was completed, the contents of the plates were discarded. Plates were then washed with TBS-T (250 μL/well, 5×) and then blocked with TBS-T containing 1% BSA for 2 hours. The contents of the plates was discarded, and 100 μL (per well) of peroxidase-labeled anti-phospho-tyrosine antibody (Sigma, # A5964) diluted (1:60,000) in 1% BSA containing TBS-T were then added and incubated for 1 hour. Plates were washed with TBS-T (250 μL/well, 5×) and followed by the color reaction using 100 μL (1:1 mixture) of H2O2 and tetramethylbenzidine (R&D Systems, # DY999). The reaction was stopped in minutes with […] of 2 N H2SO4. The optical density was measured immediately using a microplate reader at 450 nm with wavelength correction at 540 nm. IC50 values were calculated with the GraphPad Prism software. The linear range (i.e., the time period over which the rate remained equivalent to the initial rate) was determined for the kinase and IC50 determinations were performied within this range.
# Chain of c-Met kinase (histidine-tagged c-Met catalytic domain fusion protein) (P08581 1078-1345): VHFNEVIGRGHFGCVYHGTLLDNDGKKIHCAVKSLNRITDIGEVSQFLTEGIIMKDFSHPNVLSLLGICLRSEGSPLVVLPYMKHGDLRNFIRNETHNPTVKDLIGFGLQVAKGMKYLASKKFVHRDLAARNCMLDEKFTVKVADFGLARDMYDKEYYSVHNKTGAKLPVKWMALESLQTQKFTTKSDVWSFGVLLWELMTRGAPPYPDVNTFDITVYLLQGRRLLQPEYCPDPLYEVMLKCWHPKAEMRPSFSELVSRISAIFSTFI
row,IC50 [pM],SMILES
1,100 to 1000,"CNC(=O)c1ccc(-c2cnc3ncc(Cc4ccc5ncccc5c4)n3n2)cc1Cl [Formula II, 2-chloro-N-methyl-4-(7-(quinolin-6-ylmethyl)imidazo[1,2-b][1,2,4]triazin-2-yl)benzamide]"
2,100 to 1000,"Cc1nc([C@H](C)NC(=O)c2ccc(-c3cnc4ncc(Cc5ccc6ncccc6c5)n4n3)cc2Cl)no1 [Formula III, 2-chloro-N-[(1S)-1-(5-methyl-1,2,4-oxadiazol-3-yl)ethyl]-4-[7-(quinolin-6-ylmethyl)imidazo[1,2-b][1,2,4]triazin-2-yl]benzamide]"
3,100 to 1000,"C[C@@H](O)CNC(=O)c1ccc(-c2cnc3ncc(Cc4ccc5ncccc5c4)n3n2)cc1F [Formula I, 2-fluoro-N-[(2R)-2-hydroxypropyl]-4-[7-(quinolin-6-ylmethyl)imidazo[1,2-b][1,2,4]triazin-2-yl]benzamide]"
4,100 to 1000,"CNC(=O)c1ccc(-c2cnc3ncc(Cc4ccc5ncccc5c4)n3n2)cc1C [Formula V, N,2-dimethyl-4-[7-(quinolin-6-ylmethyl)imidazo[1,2-b][1,2,4]triazin-2-yl]benzamide]"

row,SMILES,IC50 [pM]
1,"CNC(=O)c1ccc(-c2cnc3ncc(Cc4ccc5ncccc5c4)n3n2)cn1 [Formula IV, N-methyl-5-[7-(quinolin-6-ylmethyl)imidazo[1,2-b][1,2,4]triazin-2-yl]pyridine-2-carboxamide]",100 to 1000
